Source: patent publication US6780622B2, “Diterpene cyclase and methods of use” (Florida Atlantic University, priority 2002, dated 2004)
Non-standard residues stand in square brackets, D forms with d. Residues, ends and D or L forms follow the SMILES beside them. *: point of attachment. Sta = CC(C)C[C@H](N)[C@@H](O)CC(=O)O; Isovaleryl = CC(C)CC(=O)*

Test: Cyclization of 3H-GGPP by purified elisabethatriene cyclase-containing chromatography fractions
Format: biochemical, Pseudopterogorgia elisabethae
Conditions: judged by the formation of pseudopterosins
Description: An example of a method for cyclizing GGPP to elisabethatriene includes the steps of providing purified elisabethatriene cyclase and contacting the GGPP substrate with the purified elisabethatriene cyclase under reaction conditions that result in the production of elisabethatriene. Any suitable reaction conditions that result in the production of elisabethatriene may be used. For example, ^3H-GGPP (1 μCi) is incubated with a suitable amount of purified elisabethatriene cyclase at 27° C. for 1-4 hours.
To purify enzymatically active elisabethatriene cyclase, CFE samples were subjected to DEAE ion-exchange chromatography, phenyl sepharose chromatography, hydroxyapatite chromatography, and UNO™ [2-Propen-1-aminium, N,N,-dimethyl-N-2-propenyl-, chloride, polymer with 1,4-bis(1-oxo-2-propenyl)piperazine and 2-methyl-2-propenamide] ion exchange chromatography (Bio-Rad Laboratories, Hercules, Calif.). Active fractions were obtained in all cases. Fractions resulting from these purification techniques were concentrated by ultracentrifugation, and then 0.5-100 μg (brought up to a total volume of 500 μl) was assayed for enzymatic activity by incubation with 1 μCi [1]^3H-GGPP for 1 hour in 20 mM Tris buffer (pH 7.7, 3 mM EDTA, 5 mM β-mercaptoethanol, 5 mM MgCl2). Samples were quenched, extracted with 500 μl hexanes and partially purified by passing through a small silica gel pasteur pipette column. Elisabethatriene was then added as “cold carrier” and incubations were purified by high-performance liquid chromatography (HPLC). […] Radioactivity in HPLC fractions was quantified by scintillation counting.
Using elisabethatriene cyclase purified by column chromatography as described in Example 1, GGPP was cyclized to elisabethatriene. To carry out the reaction, incubations were performed by incubating ^3H-GGPP(1 μCi) with purified elisabethatriene cyclase-containing fractions from chromatography columns at 27° C. for 1-4 hours.

Row | SMILES | effect of adding protease inhibitors on enzymatic activity of the fractions
1 | CC(C)CC(=O)N[C@H](C(=O)N[C@H](C(=O)N[C@@H](CC(C)C)[C@@H](O)CC(=O)N[C@@H](C)C(=O)N[C@@H](CC(C)C)[C@@H](O)CC(=O)O)C(C)C)C(C)C [pepstatin] (Isovaleryl-VV[Sta]A[Sta]-OH) | did not increase the enzymatic activity
2 | CC(=O)N[C@@H](CC(C)C)C(=O)N[C@@H](CC(C)C)C(=O)N[C@H](C=O)CCCNC(=N)N [leupeptin] | did not increase the enzymatic activity
3 | CC(C)C[C@H](NC(=O)[C@@H](NC(=O)N[C@@H](Cc1ccccc1)C(=O)O)[C@@H]1CCN=C(N)N1)C(=O)N[C@H](C=O)Cc1ccccc1 [chymostatin] | did not increase the enzymatic activity
